Drawing on US20250154169A1, “COMPOUNDS AND METHODS FOR MODULATING SPLICING” (REMIX THERAPEUTICS INC., priority 2021, published 2025), this text covers AC50 and IC50 for nine compounds.

The test system of assay [1] is MYB mRNA. Nature of the assay: Splicing RT-qPCR assay, MYB canonical (CJ) and alternative (AJ) junction mRNA. The class given is cell-based, human. The settings on record: Homo sapiens, 24 h, A673 or K562 cells, 24 hours compound treatment, RT-qPCR; for AC50: read-out: MYB AJ (AC50, increase in alternative junction mRNA); for IC50: read-out: MYB CJ (IC50, decrease in canonical junction mRNA). The method, boiled down:
(§1)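 Canonical (CJ) and alternative-exon (AJ) junction mRNAs quantified by one-step RT-qPCR in cell lysates, normalized to housekeeping PPIA for A673 and GAPDH or GUSB for K562. Cells were exposed 24 h at 37 °C to 11-point 3-fold compound series from 10 uM final, with DMSO at or below 0.25%.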
(In general: In qPCR the cycle at which signal appears reflects the starting amount.)

The test system of assay [2] is HTT mRNA. As to the kind of experiment: Splicing RT-qPCR assay, HTT canonical (CJ) and alternative (AJ) junction mRNA. The conditions noted are these: Homo sapiens, A673 or K562 cells, 24 hours compound treatment; for IC50: 24 h, read-out: HTT CJ (IC50, decrease in canonical junction mRNA); for AC50: read-out: HTT AJ (AC50, increase in alternative junction mRNA). The class given is cell-based, human. Summed up:
as §1

In general, AC50 refers to the concentration giving half of the maximal activity seen. The IC50 is the point on the concentration scale where inhibition reaches its midpoint. With `Cc1cn2cc(NC(=O)c3ccc(N4CCNCC4)c4cn(C)nc34)ccc2n1` [Compound 518, 2-methyl-N-{2-methylimidazo[1,2-a]pyridin-6-yl}-4-(piperazin-1-yl) indazole-7-carboxamide], the AC50 was below 100 nM in assay [1] and 1000 to 10000 nM in assay [2]. Also, the IC50 in assay [1] fell in the range of 100 to 1000 nM; in assay [2], 1000 to 10000 nM.

For `CCN[C@@H]1CCN(c2ccc(C(=O)Nc3cc(F)c4nc(C)cn4c3)c3nn(C)cc23)C1` [Compound 520, 4-[(3R)-3-(ethylamino)pyrrolidin-1-yl]-N-{8-fluoro-2-methylimidazo[1,2-a]pyridin-6-yl}-2-methylindazole-7-carboxamide], in assay [1], the AC50 is below 100 nM and the IC50 was below 100 nM. In assay [2], the IC50 lay in the range of 1000 to 10000 nM and the concentration at half-maximal activity (AC50) is 1000 to 10000 nM.

For the compound `Cc1cn2cc(NC(=O)c3ccc(N4CC[C@@H](NCC5CC5)C4)c4cn(C)nc34)cc(F)c2n1` [Compound 522, 4-[(3R)-3-[(cyclopropylmethyl)amino]pyrrolidin-1-yl]-N-{8-fluoro-2-methylimidazo[1,2-a]pyridin-6-yl}-2-methylindazole-7-carboxamide], in assay [1], the AC50 is 100 to 1000 nM and the IC50 was below 100 nM. Also, in assay [2], the IC50 lay in the range of 1000 to 10000 nM and the AC50 was in the range of 1000 to 10000 nM.

For the compound `Cc1cn2cc(NC(=O)c3ccc(N4CC[C@@H](NC(C)C)C4)c4cn(C)nc34)cc(F)c2n1` [Compound 524, N-{8-fluoro-2-methylimidazo[1,2-a]pyridin-6-yl}-4-[(3R)-3-(isopropylamino)pyrrolidin-1-yl]-2-methylindazole-7-carboxamide], the half-maximal activity concentration (AC50) in assay [1] was below 100 nM; in assay [2], above 10000 nM. In addition, the values for the IC50 in assay [1] and in assay [2] were below 100 nM and above 10000 nM, respectively.

With `CCn1cc2c(N3CCC(C)(NC4CC4)CC3)ccc(C(=O)Nc3cc(F)c4nc(C)cn4c3)c2n1` [Compound 525, 4-[4-(cyclopropylamino)-4-methylpiperidin-1-yl]-2-ethyl-N-{8-fluoro-2-methylimidazo[1,2-a]pyridin-6-yl}indazole-7-carboxamide], in assay [1], the concentration at half-maximal activity (AC50) is below 100 nM and the IC50 was below 100 nM. Besides, in assay [2], the half-inhibitory concentration (IC50) lay within 100 to 1000 nM and the concentration at half-maximal activity (AC50) is 100 to 1000 nM.

As to `CCn1cc2c(C3CCNC3)ccc(C(=O)Nc3cc(F)c4nccn4c3)c2n1` (stereo not drawn) [Compound 526, 2-ethyl-N-{8-fluoroimidazo[1,2-a]pyridin-6-yl}-4-(pyrrolidin-3-yl) indazole-7-carboxamide], in assay [1], the AC50 was 1000 to 10000 nM and the IC50 was 1000 to 10000 nM. Besides, in assay [2], the concentration for half-maximal inhibition (IC50) was above 10000 nM and the AC50 is above 10000 nM.

Consider `CCN(c1ccc(C(=O)Nc2cc(F)c3nc(C)cn3c2)c2nn(C)cc12)C1CCNCC1` [Compound 527, 4-[ethyl(piperidin-4-yl)amino]-N-{8-fluoro-2-methylimidazo[1,2-a]pyridin-6-yl}-2-methylindazole-7-carboxamide], for which, in assay [1], the half-maximal activity concentration (AC50) was in the range of 100 to 1000 nM and the half-inhibitory concentration (IC50) was in the range of 100 to 1000 nM. Besides, in assay [2], the 50% inhibitory concentration (IC50) is above 10000 nM and the concentration at half-maximal activity (AC50) is above 10000 nM.

`Cc1cn2cc(NC(=O)c3cc(Cl)c(N4CCNCC4)c4cn(C)nc34)cc(F)c2n1` [Compound 528, 5-chloro-N-{8-fluoro-2-methylimidazo[1,2-a]pyridin-6-yl}-2-methyl-4-(piperazin-1-yl) indazole-7-carboxamide]: the AC50 in assay [1] is 100 to 1000 nM; in assay [2] it was above 10000 nM. In addition, the figures for the half-inhibitory concentration (IC50) in assay [1] and in assay [2] were 100 to 1000 nM and above 10000 nM, respectively.

In the case of `COc1nc(NC(=O)c2ccc(N3CCNCC3)c3cn(C)nc23)cc2oc(C)nc12` [Compound 529, N-{4-methoxy-2-methyl-[1,3]oxazolo[4,5-c]pyridin-6-yl}-2-methyl-4-(piperazin-1-yl) indazole-7-carboxamide], in assay [1], the AC50 was below 100 nM and the half-inhibitory concentration (IC50) is below 100 nM. Besides, in assay [2], the 50% inhibitory concentration (IC50) is below 100 nM and the concentration at half-maximal activity (AC50) lay in the range of 100 to 1000 nM.
